Laboratory results published in patent US20050171030A1, “Relieving symptoms of erectile dysfunction and attaining sexual wellness and health of the sexual vascular system with proanthocyanidins” (priority 2000, published 2005).
“And” between values parts separate entries of the source, which are not always exact repeats. Equal values may be shown once.

Tests used:
[1] = tested on: men with erectile dysfunction; experiment: Clinical study of arginine aspartate (Sargenor) alone and with Pycnogenol in 40 men with erectile dysfunction; assay type: in vivo, human
Method: A clinical study was conducted on forty participants who had erectile dysfunction. The study involved the effect of taking arginine asparatate, which is a salt of arginine with aspartic acid. One gram of arginine asparatate contains 566.85 mg of arginine.
The participants were grouped according to their variant of disturbed erection. The variants are in five categories: weakened, delayed, hesitating, losing and normal. The “weakened” variant signifies that the penis increases in size and becomes hard to a certain extent, but it is not enough to enter the vagina. The “delayed” variant signifies that if it is possible for the penis to become hard enough to enter the vagina, but such may require additional time. The “hesitating” variant signifies that before or after sexual contact, the erection is unstable and thus makes the sexual intercourse more difficult. The “losing” variant signifies that during the love game there is good erection, but such is lost when trying to make contact or during intercourse. The “normal” variant signifies that no appreciable disturbed erection was present.
The clinical study was over three months. During the first month, only 3 doses of 1000 milligrams (mg) of arginine asparatate (Sargenor) were administered daily to each participant. By the end of the first month, there was improvement in erectile dysfunction in about 10% of the participants. During the second month, 2 doses of 40 mg of Pycnogenol® food supplement were administered daily to each participant, together with the 3 doses of 1000 mg of arginine asparatate. By the end of the second month, there was a statistically significant improvement of erectile dysfunction in 80% of the participants. During the third month, 3 doses of 40 mg of Pycnogenol® food supplement were administered daily to each participant, together with the 3 doses of 1000 mg of arginine asparatate. By the end of the third month, there was further improvement of the erectile dysfunction condition even for some of the participants who had not shown improvement during the second month. Overall, there was a statistically significant improvement of erectile dysfunction in 92% of the treated participants.
The following statistical analysis of the results from the clinical study calculate the probability of whether the observed differences between two treatments are statistically significant at a certain level.
Dr. Romil Stanislavov and V. Nikolova of The Seminological Laboratory SBALAG in Maichin Dom, Sofia, Bulgaria investigated the possibility to overcome erectile dysfunction by increasing the amounts of endogenous NO. For this purpose, Pycnogenol® pine bark extract as it is known to stimulate nitric oxide synthase was orally administered together with L-arginine as substrate for this enzyme.
The study included 40 men aged 25 to 45 years (mean age 36.6.+−.5.3 years) with confirmed functional erectile dysfunction of at least 3 months duration, who were unable to achieve adequate erection and rigidity sufficient for vaginal penetration and completion of successful intercourse after spontaneous sexual stimulation. All patients were required to be involved in a stable, monogamous relationship with a female partner for more than 6 months.
Exclusion criteria were severe cardiovascular diseases, hypertension, renal failure, hepatic insufficiency, endocrine abnormalities, and psychiatric disorders. Patients were also excluded if they were currently or recently treated for erectile dysfunction by vasoactive medications, surgery, or any mechanical device. Concomitant use of other therapies for erectile dysfunction were not allowed. The study was approved by the Ethics Committee of Medical Research Board of the University Clinic of Sofia, Bulgaria and written consent was obtained from each participant. […]

[2] = tested on: men with testosterone levels below normal; experiment: Example 2: 12-month treatment of 50 men with testosterone levels below normal and secondary infertility; Global efficacy questionnaire on erection; assay type: in vivo, human; details: after 1 month treatment with L-arginine (only)
Method: In the department of Dr. Stanislavov and Dr. Nikolova 50 men aged between 45-60 with testosterone levels below normal were treated daily with • Pycnogenol® 120 mg • L-arginine (Sargenor) 1.71 g • Testosterone undecanoate 120 mg • over a period of 12 months because of secondary infertility.

postmenopausal women = details: taken together with supplemental hormones; 202 postmenopausal women; cited from earlier work
[3] = after 1 month, arginine aspartate (Sargenor) 3 x 1000 mg daily only, 40 patients

| Molecule | Responders (restored erectile function), number of patients ([1]; Sargenor only, 1. month) | Responders (restored erectile function), percent of patients ([1]; Sargenor only, 1. month) | Normal erection, D (percent distribution) [1, 3] | Normal erection, n (number of patients) [1, 3] | Variant of disturbed erection: Delayed, D (percent distribution) [1, 3] | Variant of disturbed erection: Delayed, n (number of patients) [1, 3] | Variant of disturbed erection: Hesitating, D (percent distribution) [1, 3] | Variant of disturbed erection: Hesitating, n (number of patients) [1, 3] | Variant of disturbed erection: Losing, D (percent distribution) [1, 3] | Variant of disturbed erection: Losing, n (number of patients) [1, 3] | Variant of disturbed erection: Weakened, D (percent distribution) [1, 3] | Variant of disturbed erection: Weakened, n (number of patients) [1, 3] | Participants with improvement in erectile dysfunction ([1]; end of first month, 3 doses of 1000 mg arginine asparatate daily only) | Mean time of duration (of the erection) ([1]; mean (SEM), responders, Sargenor only, 1. month) | Mean time until response emerges ([1]; mean (SEM), responders, spontaneous sexual stimulation, Sargenor only, 1. month) | Assessment of erection: Disturbed (weakened, delayed, hesitating, loosing), number of patients [2] | Assessment of erection: Disturbed (weakened, delayed, hesitating, loosing), percent of patients [2] | Assessment of erection: Normal, number of patients [2] | Assessment of erection: Normal, percent of patients [2] | Women reporting improved genital sensations (postmenopausal women) |
| --- | --- | --- | --- | --- | --- | --- | --- | --- | --- | --- | --- | --- | --- | --- | --- | --- | --- | --- | --- | --- |
| L-arginine aspartate [Sargenor] | 2 | 5% | 5% | 2 | 25% | 10 | 10% | 4 | 10% | 4 | 50% | 20 | about 10% | 2 ± 1 min | 10 min and 10 ± 2 min | 42 | 84% | 8 | 16% |  |
| CCCc1nn(C)c2c(=O)[nH]c(-c3cc(S(=O)(=O)N4CCN(C)CC4)ccc3OCC)nc12 [sildenafil] |  |  |  |  |  |  |  |  |  |  |  |  |  |  |  |  |  |  |  | 57% |
